We go through three compounds from paper PMC7699745, “The Search for New Anticonvulsants in a Group of (2,5-Dioxopyrrolidin-1-yl)(phenyl)Acetamides with Hybrid Structure—Synthesis and In Vivo/In Vitro Studies” (International Journal of Molecular Sciences, 2020).

Data set [1] deals with MES seizures, mice. As to conditions: known AED, background statement; cited from earlier work.
In data set [2] the test system is 6 Hz (32 mA) seizures, mice. The note with it: known AED, background statement; cited from earlier work.
For data set [3], the system named is 6 Hz (32 mA) seizures, mice. Nature of the data set: Psychomotor 6 Hz (32 mA) seizure model. It is filed as in vivo. The note with it: Mus musculus, ip, at TPE (0.5 h; LTG 1.0 h), 95% confidence intervals in parentheses.
For data set [4], the system named is MES seizures, mice. Nature of the data set: Maximal electroshock (MES) seizure test. The note with it: Mus musculus, ip, at TPE (0.5 h; LTG 1.0 h), 95% confidence intervals in parentheses. It is filed as in vivo.
The nature of data set [5]: in vivo. The note with it: mouse, ip.
The nature of data set [6]: in vitro. The note with it: PAMPA.
Protocol: Passive diffusion was tested in the parallel artificial membrane permeability assay (PAMPA) and expressed as the permeability coefficient (Pe). A highly permeable compound, caffeine (CFN), and a poorly permeable compound, norfloxacin (NFX), were used as the references.
Precoated PAMPA Plate System Gentest™ was provided by Corning, (Tewksbury, MA, USA).

For the compound `COC[C@@H](NC(C)=O)C(=O)NCc1ccccc1` [LCS, lacosamide], in data set [1], the “activity in the MES model” value is given as “active”. For the same compound, the “activity in the 6 Hz (32 mA) model” value in data set [2] is given as “active”.

For the compound `Nc1nnc(-c2cccc(Cl)c2Cl)c(N)n1` [LTG, lamotrigine, reference compound], the ED50 worked out at 6.4 mg/kg in data set [3] and 3.1 mg/kg in data set [4]. In data set [5], this compound gave a TD50 at 0.5 h of 48.3 mg/kg.

As for `CCn1cc(C(=O)O)c(=O)c2cc(F)c(N3CCNCC3)cc21` [NFX, norfloxacin], the Papp in data set [6] came out at 0.056 ×10⁻⁶ cm/s.
